Assay results from ChEMBL document CHEMBL1156365, “Polyacetylene carboxylic acids from Mitrephora celebica” (2001).
Converted amounts (≈) assume the structure as drawn.

Legend:
[1] = test system: Staphylococcus aureus; assay: Antibacterial activity against methicillin-resistant Staphylococcus aureus by NCCLS M7-A4 method; type: functional
[2] = test system: Mycolicibacterium smegmatis; assay: Antibacterial activity against Mycobacterium smegmatis; type: functional

Compound	MIC [1] [µg/mL]	MIC [2] [µg/mL]
C=CCCC#CC#CC#CCCCCCCCC(=O)O [OROPHEIC ACID]	12.5 (≈ 46.2 µM)	12.5 (≈ 46.2 µM)
NNC(=O)c1ccncc1 [ISONIAZID]		0.8 (≈ 5.83 µM)
C=CCC/C=C/C#CC#CCCCCCCCC(=O)O	25 (≈ 91.8 µM)	12.5 (≈ 45.9 µM)
CN[C@H](CC(C)C)C(=O)N[C@H]1C(=O)N[C@@H](CC(N)=O)C(=O)N[C@H]2C(=O)N[C@H]3C(=O)N[C@H](C(=O)N[C@H](C(=O)O)c4cc(O)cc(O)c4-c4cc3ccc4O)[C@H](O)c3ccc(c(Cl)c3)Oc3cc2cc(c3O[C@@H]2O[C@H](CO)[C@@H](O)[C@H](O)[C@H]2O[C@H]2C[C@](C)(N)[C@H](O)[C@H](C)O2)Oc2ccc(cc2Cl)[C@H]1O [VANCOMYCIN]	0.8 (≈ 0.552 µM)	
